Like-named read-outs stand apart in the source and are kept apart here. Non-standard residues stand in square brackets, D forms with d. Residues, ends and D or L forms follow the SMILES beside them. *: point of attachment. Hexanoyl = CCCCCC(=O)*; Butyryl = CCCC(=O)*
Experiments:
[1] = tested on: P. aeruginosa (ATCC 27853); type: cell-based, Pseudomonas aeruginosa; conditions: P. aeruginosa ATCC 27853, MHB-II, 37 °C, 18–24 h, triplicate
Method: (§1) The following bacteria were grown in cation-adjusted Muller-Hinton broth at 37 °C with shaking: A. baumannii (ATCC 19606), E. coli (ATCC 25922), K. pneumoniae (ATCC 13883), P. aeruginosa (ATCC 27853), and S. aureus (ATCC 29213).
(§2) The MIC experiments were performed in triplicate, as described in Jensen et al.. Briefly, all peptide stock solutions were prepared by dissolving each peptide in Milli-Q water to obtain a concentration of 10 mg/mL. A bacterial concentration of 10^6 CFU/mL was obtained through the dilution of an overnight culture (MHB-II medium). When the overnight culture was prepared, the OD was measured using a spectrophotometer and when an OD value between 0.2 and 0.4 was obtained, the culture was diluted to OD = 0.002. The MIC determination was carried out in 96-well polypropylene microtitre plates. […] A final bacterial inoculum of 5 × 10^5 CFU/mL per well was obtained by adding 50 μL bacterial suspension to the microtiter plates. The plates were incubated at 37 °C for 18–24 h. To verify the CFU, 10 μL of bacteria suspension was transferred to 990 μL 0.9 % saline solution, from which a 10-fold dilution was carried out. Then, 100 μL of the dilution was plated on an LB plate and left for bacterial growth overnight at 37 °C. Colistin and vancomycin were used as the positive controls.

human erythrocytes = conditions: 150 μM peptide; 0.5% (v/v) red blood cell suspension in PBS, 1 h at 37 °C, absorbance 414 nm; melittin positive control, PBS negative control; three wells
Method: PBS served as the negative control and 5 μM melittin served as the positive control. All melittin solutions were prepared in Protein LoBind Eppendorf tubes to prevent the adsorption of melittin to the inner surface of the tubes.
Preparation of peptide solutions and melittin: A 5 μM melittin solution in PBS was prepared the day before the hemolysis experiment. First, 150 μL of this solution was transferred to each of the positive control wells and stored in the fume hood to coat the wells. On the day of the experiment, the melittin solution was discarded and the wells were washed with 3 × PBS. A 2.5 μM melittin solution in PBS was prepared and 75 μL was transferred to the wells. PBS (150 μL) was used as the negative control. A solution of each peptide was prepared by dissolving the peptide in 0.5 mL PBS to obtain a concentration of 300 μM. Each peptide solution (150 μL) was transferred to the wells in three wells each in row A, and the plate was diluted down.
Preparation of the red blood cell suspension: 1 mL of type O- whole blood in citrate was transferred to a cryotube. The whole blood was washed with 3 × PBS; adding 3, 3, and 4 mL of PBS, respectively. In between, the blood was centrifuged for 8 min (3000, 3000, and 4000 rpm, respectively) and the supernatant was removed after each centrifugation. A 0.5% (v/v) blood suspension was prepared by adding 40 μL of the washed blood cells to 8 mL of PBS. Then, 75 μL of the red blood cell suspension was transferred to each well and mixed gently. The plate was sealed and incubated for 1 h at 37 °C. After incubation, the plate was centrifuged at 4000 rpm for 10 min. Afterwards, 60 μL of the supernatant from each well was quickly transferred to an ELISA plate.
The absorbance was determined at 414 nm, and Equation (1) below was used to calculate the hemolytic activity of the peptides.

E. coli (ATCC 25922) = type: cell-based, Escherichia coli; conditions: E. coli ATCC 25922, MHB-II, 37 °C, 18–24 h, triplicate
Method: as §1, §2

[2] = tested on: A. baumannii (ATCC 19606); type: cell-based, Acinetobacter baumannii; conditions: A. baumannii ATCC 19606, MHB-II, 37 °C, 18–24 h, triplicate
Method: as §1, §2

[3] = tested on: K. pneumoniae (ATCC 13883); type: cell-based, Klebsiella pneumoniae; conditions: K. pneumoniae ATCC 13883, MHB-II, 37 °C, 18–24 h, triplicate
Method: as §1, §2

S. aureus (ATCC 29213) = assay: MIC determination, broth microdilution; type: cell-based, Staphylococcus aureus; conditions: S. aureus ATCC 29213, MHB-II, 37 °C, 18–24 h, triplicate
Method: as §1, §2

[4] = Hydrophobicity by analytical RP-HPLC (%B at elution); type: physicochemical; conditions: chromatographic, analytical reversed-phase HPLC, Waters Symmetry C18 5 μm 4.6 × 250 mm; A: H2O + 0.1% TFA, B: 90:10 ACN-H2O + 0.1% TFA
Method: Peptide purity was determined as described previously by analytical RP-HPLC using a Waters 717 plus Autosampler, In-line Degasser AF, 600 Controller, and 2996 Photodiode Array Detector; the column used was a Waters Symmetry C18 column (5 μm, 4.6 mm × 250 mm, Milford, MA, USA). An aqueous acetonitrile (ACN) gradient with 0.1% TFA added (mixing eluent A: H2O + 0.1% TFA and eluent B: 90:10 ACN-H2O + 0.1% TFA) was employed using milli-Q water. Preparative RP-HPLC was performed by using a Waters XSelect Peptide CSH C18 OBDTM column (5 μm, 19 mm × 250 mm, Milford, MA, USA) with the same eluents as for analytical HPLC.
*Hydrophobicity as indicated by the percentage of mobile phase B (%B) at the peak elution time on analytical

SMILES | MIC PA ([1]; inoculum 5 × 10^5 CFU/mL) [µg/mL] | MIC PA ([1]; value in brackets) [µM] | % hemolysis of human erythrocytes (human erythrocytes) [%] | MIC EC (E. coli (ATCC 25922); inoculum 5 × 10^5 CFU/mL) [µg/mL] | MIC EC (E. coli (ATCC 25922); value in brackets) [µM] | MIC AB ([2]; inoculum 5 × 10^5 CFU/mL) [µg/mL] | MIC AB ([2]; value in brackets) [µM] | MIC KP ([3]; inoculum 5 × 10^5 CFU/mL) [µg/mL] | MIC KP ([3]; value in brackets) [µM] | MIC SA (S. aureus (ATCC 29213); inoculum 5 × 10^5 CFU/mL) [µg/mL] | MIC SA (S. aureus (ATCC 29213); value in brackets) [µM] | %B (hydrophobicity: percentage of mobile phase B at the peak elution time) [4] [%B]
CCCC(=O)N[C@H](CCCCN)C(=O)N[C@H](CCCCN)C(=O)N[C@H](CC(C)C)C(=O)N[C@H](Cc1ccccc1)C(=O)N[C@H](CCCCN)C(=O)N[C@H](CCCCN)C(=O)N[C@@H](C(=O)N[C@H](CC(C)C)C(=O)N[C@H](CCCNC(=N)N)C(=O)N[C@H](Cc1ccc(O)cc1)C(=O)N[C@H](CC(C)C)C(N)=O)[C@H](C)CC [compound 1] (Butyryl-[dK][dK][dL][dF][dK][dK][dI][dL][dR][dY][dL]-NH2) | 32 | 21.1 | 100 | 2 | 1.3 | 2 | 1.3 | 4 | 2.6 | 64 | 42.1 | –
CCCCCC(=O)N[C@H](CCCCN)C(=O)N[C@H](CCCCN)C(=O)N[C@H](CC(C)C)C(=O)N[C@H](Cc1ccccc1)C(=O)N[C@H](CCCCN)C(=O)N[C@H](CCCCN)C(=O)N[C@@H](C(=O)N[C@H](CC(C)C)C(=O)N[C@H](CCCNC(=N)N)C(=O)N[C@H](Cc1ccc(O)cc1)C(=O)N[C@H](CC(C)C)C(N)=O)[C@H](C)CC [compound 2] (Hexanoyl-[dK][dK][dL][dF][dK][dK][dI][dL][dR][dY][dL]-NH2) | 32 | 20.7 | 100 | 8 | 5.2 | 4 | 2.6 | 8 | 5.2 | 64 | 41.4 | 67.9
CC[C@@H](C)[C@@H](NC(=O)[C@@H](CCCCN)NC(=O)[C@@H](CCCCN)NC(=O)[C@@H](Cc1ccccc1)NC(=O)[C@@H](CC(C)C)NC(=O)[C@@H](CCCCN)NC(=O)[C@H](N)CCCCN)C(=O)N1CCCC[C@H](C(N)=O)NC(=O)[C@@H](Cc2ccc(O)cc2)NC(=O)[C@@H](CCCNC(=N)N)NC(=O)[C@@H](CC(C)C)NC(=O)C1 [compound 8] | > 64 | > 42.6 | 3 | > 64 | > 42.6 | > 64 | > 42.6 | > 64 | > 42.6 | > 64 | > 42.6 | –
CCCCCCCCCCCC(=O)N[C@H](CCCCN)C(=O)N[C@H](CCCCN)C(=O)N[C@H](CC(C)C)C(=O)N[C@H](Cc1ccccc1)C(=O)N[C@H](CCCCN)C(=O)N[C@H](CCCCN)C(=O)N[C@@H](C(=O)N1CCCC[C@H](C(N)=O)NC(=O)[C@@H](Cc2ccc(O)cc2)NC(=O)[C@@H](CCCNC(=N)N)NC(=O)[C@@H](CC(C)C)NC(=O)C1)[C@H](C)CC [compound 14] | 4 | 2.4 | – | 4 | 2.4 | 4 | 2.4 | 16 | 9.5 | 4 | 2.4 | 65.1
CCCCCCCCCCCCCC(=O)N[C@H](CCCCN)C(=O)N[C@H](CCCCN)C(=O)N[C@H](CC(C)C)C(=O)N[C@H](Cc1ccccc1)C(=O)N[C@H](CCCCN)C(=O)N[C@H](CCCCN)C(=O)N1CCCC[C@H](C(N)=O)NC(=O)[C@@H](Cc2ccc(O)cc2)NC(=O)[C@@H](CCCNC(=N)N)NC(=O)[C@@H](CC(C)C)NC(=O)[C@@H]([C@H](C)CC)NC(=O)C1 [compound 18] | 16 | 9.3 | – | 8 | 4.6 | 4 | 2.3 | 32 | 18.7 | 4 | 2.3 | 78.5

Reference: paper PMC9404711 (Antibiotics, 2022)
